Reference: patent US9499550B2 (BRISTOL-MYERS SQUIBB COMPANY, priority 2012, dated 2016)
Where two headings read alike, the source gives them in different places.

Columns and labels:
[1] = system: HCV genotype 1a (H77 strain) replicon in HUH-7 cells; assay: HCV replicon luciferase reporter assay, genotype 1a; format: cell-based; conditions: Hepatitis C virus, Huh-7, 72 h, 3 days incubation, read-out: LE_1a (EC50, range)
Procedure, shortened: (§1)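 Replicon inhibition for both genotypes was measured as Renilla luciferase signal (EnduRen, 7.5 μM final, 2 h) after 3-day, 37° C exposure of replicon-bearing HUH-7 cells in 4% FCS DMEM, 0.5% DMSO. The 1b construct carries S1179I; the 1a H77 construct carries P1496L and S2204I. Twenty-point, 3-fold dilutions were fitted four-parametrically for EC50, and CC50 was taken from multiplexed Cell Titer-Blue.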

[2] = system: HCV genotype 1b (Con1) replicon in HUH-7 cells; assay: HCV replicon luciferase reporter assay, genotype 1b; format: cell-based; conditions: Hepatitis C virus, Huh-7, 72 h, 3 days incubation, read-out: LE_1b (EC50, range)
Procedure, shortened: as §1

[3] = HCV genotype 1a replicon luciferase assay, range class
[4] = HCV genotype 1b replicon luciferase assay, range class
[5] = HCV genotype 1a replicon luciferase
[6] = HCV genotype 1b replicon luciferase
[7] = GETYPE1A, HCV genotype 1a replicon luciferase
[8] = GETYPE1B, HCV genotype 1b replicon luciferase

SMILES	EC50 [1, 3]	EC50 [2, 4]	EC50 [1, 5]	EC50 [2, 6]	other results
COc1ccc2c(O[C@@H]3C[C@H]4C(=O)N[C@]5(C(=O)NS(=O)(=O)C6CC6)C[C@H]5/C=C\CC[C@@H](C)C[C@@H](C)[C@H](NC(=O)OC(C)(C)C(F)(F)F)C(=O)N4C3)nc(-c3ccc(OC)c(F)c3)cc2c1 [Compound 3056, 1,1,1-trifluoro-2-methylpropan-2-yl((2R,6S,7R,9R,13aS,14aR,16aS,Z)-14a-((cyclopropylsulfonyl)carbamoyl)-2-((3-(3-fluoro-4-methoxyphenyl)-6-methoxyisoquinolin-1-yl)oxy)-7,9-dimethyl-5,16-dioxo-1,2,3,5,6,7,8,9,10,11,13a,14,14a,15,16,16a-hexadecahydrocyclopropa[e]pyrrolo[1,2-a][1,4]diazacyclopentadecin-6-yl)carbamate]	< 5.46 nM	< 5.46 nM	–	–	–
CCC(CC)(OC(=O)N[C@@H]1C(=O)N2C[C@H](Oc3nccc4c5c(ccc34)OCCO5)C[C@H]2C(=O)N[C@]2(C(=O)NS(=O)(=O)C3CC3)C[C@H]2/C=C\CC[C@@H](C)C[C@H]1C)C(F)(F)F [Compound 5262, 3-(trifluoromethyl)pentan-3-yl ((2R,6S,7R,9R,13aS,14aR,16aS,Z)-14a-((cyclopropylsulfonyl)carbamoyl)-2-((2,3-dihydro-[1,4]dioxino[2,3-f]isoquinolin-7-yl)oxy)-7,9-dimethyl-5,16-dioxo-1,2,3,5,6,7,8,9,10,11,13a,14,14a,15,16,16a-hexadecahydrocyclopropa[e]pyrrolo[1,2-a][1,4]diazacyclopentadecin-6-yl)carbamate]	–	–	< 5.46 nM	< 5.46 nM	–
COc1cnc(O[C@@H]2C[C@H]3C(=O)N[C@]4(C(=O)NS(=O)(=O)C5(CF)CC5)C[C@H]4/C=C\CC[C@@H](C)C[C@@H](C)[C@H](NC(=O)OC(C)(C)C)C(=O)N3C2)c2cc(F)ccc12 [Compound 4082, tert-butyl (2R,6S,7R,9R,13aS,14aR,16aS,Z)-2-(7-fluoro-4-methoxyisoquinolin-1-yloxy)-14a-(1-(fluoromethyl)cyclopropylsulfonylcarbamoyl)-7,9-dimethyl-5,16-dioxo-1,2,3,5,6,7,8,9,10,11,13a,14,14a,15,16,16a-hexadecahydrocyclopropa[e]pyrrolo[1,2-a][1,4]diazacyclopentadecin-6-ylcarbamate]	–	–	< 5.46 nM	< 5.46 nM	–
COc1ccc2c(O[C@@H]3C[C@H]4C(=O)N[C@]5(C(=O)NS(=O)(=O)C6CC6)C[C@H]5/C=C\CC[C@@H](C)C[C@@H](C)[C@H](NC(=O)OC(C)(C)C(F)(F)F)C(=O)N4C3)nc(N3CCOCC3)cc2c1 [Compound 3099, 1,1,1-trifluoro-2-methylpropan-2-yl((2R,6S,7R,9R,13aS,14aR,16aS,Z)-14a-((cyclopropylsulfonyl)carbamoyl)-2-((6-methoxy-3-morpholinoisoquinolin-1-yl)oxy)-7,9-dimethyl-5,16-dioxo-1,2,3,5,6,7,8,9,10,11,13a,14,14a,15,16,16a-hexadecahydrocyclopropa[e]pyrrolo[1,2-a][1,4]diazacyclopentadecin-6-yl)carbamate]	< 5.46 nM	< 5.46 nM	–	–	–
CC[C@@H]1C[C@H](C)CC/C=C\[C@@H]2C[C@@]2(C(=O)NS(=O)(=O)C2(C)CC2)NC(=O)[C@@H]2C[C@@H](Oc3nc(OC)cc4cc(OC)ccc34)CN2C(=O)[C@H]1NC(=O)OC(C)(C)C(F)(F)F [Compound 1120, 1,1,1-trifluoro-2-methylpropan-2-yl((2R,6S,7R,9R,13aS,14aR,16aS,Z)-2-((3,6-dimethoxyisoquinolin-1-yl)oxy)-7-ethyl-9-methyl-14a-(((1-methylcyclopropyl)sulfonyl)carbamoyl)-5,16-dioxo-1,2,3,5,6,7,8,9,10,11,13a,14,14a,15,16,16a-hexadecahydrocyclopropa[e]pyrrolo[1,2-a][1,4]diazacyclopentadecin-6-yl)carbamate]	< 5.46 nM	< 5.46 nM	–	–	–
COCCn1nc(O[C@@H]2C[C@H]3C(=O)N[C@]4(C(=O)NS(=O)(=O)C5(C)CC5)C[C@H]4/C=C\CC[C@H](C)C[C@@H](C)[C@H](NC(=O)OC(C)(C)C)C(=O)N3C2)c2ccccc2c1=O [Compound 1005, tert-butyl ((2R,6S,7R,9S,13aS,14aR,16aS,Z)-2-((3-(2-methoxyethyl)-4-oxo-3,4-dihydrophthalazin-1-yl)oxy)-7,9-dimethyl-14a-(((1-methylcyclopropyl)sulfonyl)carbamoyl)-5,16-dioxo-1,2,3,5,6,7,8,9,10,11,13a,14,14a,15,16,16a-hexadecahydrocyclopropa[e]pyrrolo[1,2-a][1,4]diazacyclopentadecin-6-yl)carbamate]	> 87.4 nM	> 87.4 nM	–	–	–
COc1cc2nc(C(F)(F)F)c(OC)nc2cc1O[C@@H]1C[C@H]2C(=O)N[C@]3(C(=O)NS(=O)(=O)C4(C)CC4)C[C@H]3/C=C\CC[C@H](C)C[C@@H](C)[C@H](NC(=O)OC(C)(C)C)C(=O)N2C1 [Compound 4352, tert-butyl ((2R,6S,7R,9S,13aS,14aR,16aS,Z)-2-((3,7-dimethoxy-2-(trifluoromethyl)quinoxalin-6-yl)oxy)-7,9-dimethyl-14a-(((1-methylcyclopropyl)sulfonyl)carbamoyl)-5,16-dioxo-1,2,3,5,6,7,8,9,10,11,13a,14,14a,15,16,16a-hexadecahydrocyclopropa[e]pyrrolo[1,2-a][1,4]diazacyclopentadecin-6-yl)carbamate]	–	–	35 to 620 nM	35 to 620 nM	–
CCCOc1cnc(O[C@@H]2C[C@H]3C(=O)N[C@]4(C(=O)NS(=O)(=O)C5(C)CC5)C[C@H]4/C=C\CC[C@@H](C)C[C@@H](C)[C@H](NC(=O)O[C@H](C)C(F)(F)F)C(=O)N3C2)c2ccccc12 [Compound 5085, (R)-1,1,1-trifluoropropan-2-yl ((2R,6S,7R,9R,13aS,14aR,16aS,Z)-7,9-dimethyl-14a-(((1-methylcyclopropyl)sulfonyl)carbamoyl)-5,16-dioxo-2-((4-propoxyisoquinolin-1-yl)oxy)-1,2,3,5,6,7,8,9,10,11,13a,14,14a,15,16,16a-hexadecahydrocyclopropa[e]pyrrolo[1,2-a][1,4]diazacyclopentadecin-6-yl)carbamate]	–	–	4.82 to 103 nM	4.82 to 103 nM	–
COc1ccc2c(O[C@@H]3C[C@H]4C(=O)N[C@]5(C(=O)NS(=O)(=O)C6(C)CC6)C[C@H]5/C=C\CC[C@@H](C)C[C@@H](C)[C@H](NC(=O)O[C@H](C)C(F)(F)F)C(=O)N4C3)nc(N(C)C)cc2c1 [Compound 3113, (R)-1,1,1-trifluoropropan-2-yl ((2R,6S,7R,9R,13aS,14aR,16aS,Z)-2-((3-(dimethylamino)-6-methoxyisoquinolin-1-yl)oxy)-7,9-dimethyl-14a-(((1-methylcyclopropyl)sulfonyl)carbamoyl)-5,16-dioxo-1,2,3,5,6,7,8,9,10,11,13a,14,14a,15,16,16a-hexadecahydrocyclopropa[e]pyrrolo[1,2-a][1,4]diazacyclopentadecin-6-yl)carbamate]	< 5.46 nM	4.82 to 103 nM	–	–	–
C[C@@H]1CC/C=C\[C@@H]2C[C@@]2(C(=O)NS(=O)(=O)C2CC2)NC(=O)[C@@H]2C[C@@H](Oc3ncc(OCC4CC4)c4ccc(F)cc34)CN2C(=O)[C@@H](NC(=O)OC(C)(C)C(F)(F)F)[C@H](C)C1 [Compound 4067]	–	–	–	–	EC50 [1, 7]: 4.82 to 103 nM; EC50 [2, 8]: < 5.46 nM
COc1ccc2c(O[C@@H]3C[C@H]4C(=O)N[C@]5(C(=O)NS(=O)(=O)C6CC6)C[C@H]5/C=C\CC[C@H](C)C[C@@H](C)[C@H](NC(=O)OC(C)(C)C)C(=O)N4C3)nc(-c3ccc(OC)c(F)c3)cc2c1 [Compound 3049, tert-butyl ((2R,6S,7R,9S,13aS,14aR,16aS,Z)-14a-((cyclopropylsulfonyl)carbamoyl)-2-((3-(3-fluoro-4-methoxyphenyl)-6-methoxyisoquinolin-1-yl)oxy)-7,9-dimethyl-5,16-dioxo-1,2,3,5,6,7,8,9,10,11,13a,14,14a,15,16,16a-hexadecahydrocyclopropa[e]pyrrolo[1,2-a][1,4]diazacyclopentadecin-6-yl)carbamate]	< 5.46 nM	< 5.46 nM	–	–	–
COc1ccc2c(O[C@@H]3C[C@H]4C(=O)N[C@]5(C(=O)NS(=O)(=O)C6(C)CC6)C[C@H]5/C=C\CC[C@@H](C)C[C@@H](C)[C@H](NC(=O)OC(C)(C)C)C(=O)N4C3)nc(OC)cc2c1 [Compound 1131, tert-butyl ((2R,6S,7R,9R,13aS,14aR,16aS,Z)-2-((3,6-dimethoxyisoquinolin-1-yl)oxy)-7,9-dimethyl-14a-(((1-methylcyclopropyl)sulfonyl)carbamoyl)-5,16-dioxo-1,2,3,5,6,7,8,9,10,11,13a,14,14a,15,16,16a-hexadecahydrocyclopropa[e]pyrrolo[1,2-a][1,4]diazacyclopentadecin-6-yl)carbamate]	< 5.46 nM	< 5.46 nM	–	–	–
CC[C@@H]1C[C@H](C)CC/C=C\[C@@H]2C[C@@]2(C(=O)NS(=O)(=O)C2CC2)NC(=O)[C@@H]2C[C@@H](Oc3ncc(OC)c4ccc(Cl)cc34)CN2C(=O)[C@H]1NC(=O)OC(C)(C)C(F)(F)F [Compound 4190]	–	–	–	–	EC50 [1, 7]: < 5.46 nM; EC50 [2, 8]: < 5.46 nM
